In PubChem BioAssay AID2060486 (Molecular Pharmacology Branch, DTP, NCI, 2025):
pIC50: −log10 of the molar value.

Tested on: IGROV1 complex spheroids (HUVEC, MSC), viability % test/control
Test: Anticancer human tumor IGROV1 cell line growth inhibition [GQUAD];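 further: spheroids exposed to compounds for 7 days before readout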
Conditions: for pIC50: curve of first compound; for viability, T/C: stronger effect = lower value
Description: DNA G-quadruplex Stabilizer Agents in Combinations in Complex Spheroids
A high-throughput screen of multi-cell type tumor spheroids was designed to identify active combinations of DNA G-quadruplex stabilizer agents and targeted small molecules. Complex spheroids include a stromal component modeled by human endothelial cells (HUVEC) and fibroblasts modeled by human mesenchymal stem cells (MSCs). The concentration ranges selected for each drug and investigational agent were based upon clinically achievable concentrations if the clinical Cmax of the agent was known.
Compounds. The drugs and investigational agents: pidnarulex (CX-5461; NSC782164), APTO-253 (NSC789042), BRACO-19 (NSC847499), peposertib (NSC802822), ceralasertib (NSC780249), elimusertib (NSC800525), camonsertib (NSC841442), AZD-1390 (NSC803789), olaparib (NSC753686), talazoparib (NSC767125), ART-558 (NSC835418), sotorasib (NSC818433), MRTX-1133 (NSC836407), SN-38 (NSC673596), topotecan (NSC609699), etoposide (NSC141540), doxorubicin (NSC123127), gemcitabine (NSC613327), 5-fluorouracil (NSC19893), paclitaxel (NSC125973), vemurafenib (NSC761431), panobinostat (NSC761190), R-306465 (JNJ-16241199; NSC773264), adavosertib (NSC754352), TP-3654 (NSC805149), carboplatin (NSC241240), KSQ-4279 (NSC840948), and staurosporine (NSC755774) were obtained from the National Cancer Institute (NCI) Developmental Therapeutics Program Chemical Repository (34). The FDA-approved anticancer drug set is available from the NCI Developmental Therapeutics Program. […] The stock solutions were prepared in dimethyl sulfoxide (DMSO, Sigma-Aldrich, St. Louis, MO, cat. D2650) at 800-fold the tested concentration and stored at -70 degrees C prior to their use. All drugs and investigational agents were tested over a range starting from a high concentration at or near the clinical Cmax and decreasing in half-log increments. If the clinical Cmax for an agent had not been determined, the highest concentration tested was 10 microM.
2.3 Cell Culture. All cells were maintained in an incubator at 37 degrees C and 5% CO2 with 95% humidity. The PDC lines were cultured according to standard operating procedures established by the NCI PDMR. All PDCs were thawed and cultured in Matrigel-coated flasks prepared with a working solution of 1X Ham's F-12 nutrient mix, without supplementation (Invitrogen, cat. 11765054), 100 U/mL penicillin-streptomycin (Invitrogen, cat. 15140122), and 2.5% Matrigel (Corning Inc., cat. 354248) for the first three passages. The 857933-349-R-J2-PDC line was cultured in 6C/Colon 1B media, which includes advanced DMEM/F-12 (Thermo Fisher Scientific, cat. 12634028), 10 mM HEPES (Thermo Fisher Scientific, cat. 15630080), 1X GlutaMAX supplement (Thermo Fisher Scientific, cat. 35050061), 0.1 mg/mL primocin (InvivoGen, cat. ant-pm-2), 10% defined fetal bovine serum, heat inactivated (HyClone Laboratories Inc., cat. SH30070.03HI), 50% L-WRN conditioned media (ATCC, cat. CRL-3276), 1.25 mM N-Acetyl-L-cysteine (Sigma-Aldrich, cat. A9165), 10 mM nicotinamide (Sigma-Aldrich, cat. N0636), 1X B-27 supplement (Thermo Fisher Scientific, cat. 17504044), 1X N-2 supplement (Thermo Fisher Scientific, cat. 17502048), 10 microM Y-27632 dihydrochloride (Tocris Bioscience, cat. 1254), and 50 ng/mL human EGF recombinant protein (Thermo Fisher Scientific, cat. PHG0311). The 485176-168-R4-J1-PDC line was cultured in Panc media, which includes all 6C/Colon 1B media components plus 100 ng/mL human FGF-10 (Thermo Fisher Scientific, cat. 100-26), 500 nM SB-431542 (Selleckchem, cat. S1067), and gastrin (Tocris, cat. 3006).
[…]

[1] = second compound 0.0316 µM, first compound 0.0316 µM
[2] = second compound 0.0316 µM, first compound 0.316 µM
[3] = second compound 0.1 µM, first compound 0.0316 µM
[4] = second compound 0.1 µM, first compound 0.316 µM
[5] = second compound 0.316 µM, first compound 0.0316 µM
[6] = second compound 0.316 µM, first compound 0.316 µM
[7] = second compound 1 µM, first compound 0.0316 µM
[8] = second compound 1 µM, first compound 0.316 µM
[9] = second compound 3.16 µM, first compound 0.0316 µM
[10] = second compound 3.16 µM, first compound 0.316 µM
[11] = second compound 10 µM, first compound 0.0316 µM
[12] = second compound 10 µM, first compound 0.316 µM

## CC(=O)O[C@H]1C(=O)[C@@]2(C)[C@H]([C@H](OC(=O)c3ccccc3)[C@]3(O)C[C@H](OC(=O)[C@H](O)[C@@H](NC(=O)c4ccccc4)c4ccccc4)C(C)=C1C3(C)C)[C@]1(OC(C)=O)CO[C@@H]1C[C@@H]2O + CN(C)c1ccc(Nc2c3ccc(NC(=O)CCN4CCCC4)cc3nc3cc(NC(=O)CCN4CCCC4)ccc23)cc1
Second compound 0.0316 µM
  pIC50: > 7.50
Second compound 0.1 µM
  pIC50: > 7.50
Second compound 0.316 µM
  pIC50: > 7.50
Second compound 1 µM
  pIC50: > 7.50
Second compound 3.16 µM
  pIC50: > 7.50
Second compound 10 µM
  pIC50: > 7.50
[1]
  viability, T/C: 7.64%
Second compound 0.0316 µM, first compound 0.1 µM
  viability, T/C: 6.24%
[2]
  viability, T/C: 6.32%
Second compound 0.0316 µM, first compound 1 µM
  viability, T/C: 5.33%
Second compound 0.0316 µM, first compound 3.16 µM
  viability, T/C: 5%
Second compound 0.0316 µM, first compound 10 µM
  viability, T/C: 6.24%
[3]
  viability, T/C: 7.68%
Second compound 0.1 µM, first compound 0.1 µM
  viability, T/C: 5.09%
[4]
  viability, T/C: 5.96%
Second compound 0.1 µM, first compound 1 µM
  viability, T/C: 5.48%
Second compound 0.1 µM, first compound 3.16 µM
  viability, T/C: 6.36%
Second compound 0.1 µM, first compound 10 µM
  viability, T/C: 6.3%
[5]
  viability, T/C: 8.36%
Second compound 0.316 µM, first compound 0.1 µM
  viability, T/C: 5.82%
[6]
  viability, T/C: 5.8%
Second compound 0.316 µM, first compound 1 µM
  viability, T/C: 5.16%
Second compound 0.316 µM, first compound 3.16 µM
  viability, T/C: 5.67%
Second compound 0.316 µM, first compound 10 µM
  viability, T/C: 6.87%
[7]
  viability, T/C: 7.67%
Second compound 1 µM, first compound 0.1 µM
  viability, T/C: 6.92%
[8]
  viability, T/C: 6.05%
Second compound 1 µM, first compound 1 µM
  viability, T/C: 5.19%
Second compound 1 µM, first compound 3.16 µM
  viability, T/C: 6.15%
Second compound 1 µM, first compound 10 µM
  viability, T/C: 5.74%
[9]
  viability, T/C: 6.2%
Second compound 3.16 µM, first compound 0.1 µM
  viability, T/C: 8.18%
[10]
  viability, T/C: 6.89%
Second compound 3.16 µM, first compound 1 µM
  viability, T/C: 5.22%
Second compound 3.16 µM, first compound 3.16 µM
  viability, T/C: 6.1%
Second compound 3.16 µM, first compound 10 µM
  viability, T/C: 5.7%
[11]
  viability, T/C: 7.12%
Second compound 10 µM, first compound 0.1 µM
  viability, T/C: 6.03%
[12]
  viability, T/C: 5.99%
Second compound 10 µM, first compound 1 µM
  viability, T/C: 4.33%
Second compound 10 µM, first compound 3.16 µM
  viability, T/C: 4.7%
Second compound 10 µM, first compound 10 µM
  viability, T/C: 4.57%

## CC[C@@]1(O)C(=O)OCc2c1cc1n(c2=O)Cc2cc3c(CN(C)C)c(O)ccc3nc2-1 + CN(C)c1ccc(Nc2c3ccc(NC(=O)CCN4CCCC4)cc3nc3cc(NC(=O)CCN4CCCC4)ccc23)cc1
Second compound 0.0316 µM
  pIC50: 7.66
Second compound 0.1 µM
  pIC50: 7.61
Second compound 0.316 µM
  pIC50: 7.60
Second compound 1 µM
  pIC50: 7.64
Second compound 3.16 µM
  pIC50: 7.53
Second compound 10 µM
  pIC50: > 9.00
Second compound 0.0316 µM, first compound 0.000999 µM
  viability, T/C: 98.2%
Second compound 0.0316 µM, first compound 0.00316 µM
  viability, T/C: 95.7%
Second compound 0.0316 µM, first compound 0.00999 µM
  viability, T/C: 93.1%
[1]
  viability, T/C: 30.5%
Second compound 0.0316 µM, first compound 0.0999 µM
  viability, T/C: 12.2%
[2]
  viability, T/C: 10.9%
Second compound 0.1 µM, first compound 0.000999 µM
  viability, T/C: 98.1%
Second compound 0.1 µM, first compound 0.00316 µM
  viability, T/C: 87.8%
Second compound 0.1 µM, first compound 0.00999 µM
  viability, T/C: 86%
[3]
  viability, T/C: 39.7%
Second compound 0.1 µM, first compound 0.0999 µM
  viability, T/C: 13.5%
[4]
  viability, T/C: 9.48%
Second compound 0.316 µM, first compound 0.000999 µM
  viability, T/C: 94.5%
Second compound 0.316 µM, first compound 0.00316 µM
  viability, T/C: 87.5%
Second compound 0.316 µM, first compound 0.00999 µM
  viability, T/C: 91.8%
[5]
  viability, T/C: 39.4%
Second compound 0.316 µM, first compound 0.0999 µM
  viability, T/C: 12.4%
[6]
  viability, T/C: 12.2%
Second compound 1 µM, first compound 0.000999 µM
  viability, T/C: 87.5%
Second compound 1 µM, first compound 0.00316 µM
  viability, T/C: 81.7%
Second compound 1 µM, first compound 0.00999 µM
  viability, T/C: 75.9%
[7]
  viability, T/C: 40.5%
Second compound 1 µM, first compound 0.0999 µM
  viability, T/C: 9.84%
[8]
  viability, T/C: 12.7%
Second compound 3.16 µM, first compound 0.000999 µM
  viability, T/C: 70.5%
Second compound 3.16 µM, first compound 0.00316 µM
  viability, T/C: 89.4%
Second compound 3.16 µM, first compound 0.00999 µM
  viability, T/C: 77.4%
[9]
  viability, T/C: 48.1%
Second compound 3.16 µM, first compound 0.0999 µM
  viability, T/C: 13.5%
[10]
  viability, T/C: 10.8%
Second compound 10 µM, first compound 0.000999 µM
  viability, T/C: 42.9%
Second compound 10 µM, first compound 0.00316 µM
  viability, T/C: 35%
Second compound 10 µM, first compound 0.00999 µM
  viability, T/C: 37%
[11]
  viability, T/C: 19.1%
Second compound 10 µM, first compound 0.0999 µM
  viability, T/C: 9.45%
[12]
  viability, T/C: 6.49%
